Reference: patent US10336774B2, “N-azaspirocycloalkane substituted N-heteroaryl compounds and compositions for inhibiting the activity of SHP2” (NOVARTIS AG, priority 2014, dated 2019)

Target: SHP2 (Homo sapiens (Human), UniProt Q06124)
Experiment: SHP2 Allosteric Inhibition Assay
Assay type: biochemical
Excerpt: SHP2 Allosteric Inhibition Assay SHP2 is allosterically activated through binding of bis-tyrosyl-phorphorylated peptides to its Src Homology 2 (SH2) domains. The latter activation step leads to the release of the auto-inhibitory interface of SHP2, which in turn renders the SHP2 protein tyrosine phosphatase (PTP) active and available for substrate recognition and reaction catalysis. The catalytic activity of SHP2 was monitored using the surrogate substrate DiFMUP in a prompt fluorescence assay format. […] After 30-60 minutes incubation at 25° C., the surrogate substrate DiFMUP (Invitrogen, cat# D6567) was added to the reaction and incubated at 25° C. for 30 minutes. […] The inhibitor dose response curves were analyzed using normalized IC50 regression curve fitting with control based normalization.

[1] = 0.5 nM SHP2 activated with 0.5 μM peptide IRS1_pY1172(dPEG8)pY1222, surrogate substrate DiFMUP, fluorescence

| SMILES | IC50 [1] [nM] | IC50 (unit given as M, TFA salt before chiral separation) [nM] |
| --- | --- | --- |
| Nc1nc(N2CCC3(CC2)C[C@@H](O)C[C@H]3N)cnc1Sc1ccnc(Cl)c1Cl [Example 58] | 4 | – |
| C[C@@H]1C[C@H](N)C2(CCN(c3cnc(Sc4cccnc4C(F)(F)F)c(N)n3)CC2)C1 [Example 62] | 100 | – |
| Nc1nc(N2CCC3(CC2)COC[C@H]3N)cnc1Sc1ccnc(F)c1Cl [Example 64] | 13 | – |
| Nc1nc(N2CCC3(CCC[C@H]3N)CC2)cnc1Sc1cc(F)ncc1Cl [Example 65] | 310 | – |
| CC(C)C(=O)O[C@@H]1C[C@@H](N)C2(CCN(c3cnc(Sc4ccnc(Cl)c4Cl)c(N)n3)CC2)C1 [Example 66] | 65 | – |
| Nc1nc(N2CCC3(CC2)CC(F)(F)C[C@H]3N)cnc1Sc1ccnc(N)c1Cl [Example 67] | 10 | – |
| C[C@H]1C[C@@H](N)C2(CCN(c3cnc(Sc4ccnc(N)c4Cl)c(N)n3)CC2)C1 [Example 70, (1R,3R)-8-(6-amino-5-((2-amino-3-chloropyridin-4-yl)thio)pyrazin-2-yl)-3-methyl-8-azaspiro[4.5]decan-1-amine] | 5 | – |
| C[C@@H]1C[C@@H](N)C2(CCN(c3cnc(Sc4ccnc(N)c4Cl)c(N)n3)CC2)C1 [Example 71, (1R,3S)-8-(6-amino-5-((2-amino-3-chloropyridin-4-yl)thio)pyrazin-2-yl)-3-methyl-8-azaspiro[4.5]decan-1-amine] | 5 | – |
| NC1=NCC2(CCN(c3cnc(Sc4cccnc4C(F)(F)F)c(N)n3)CC2)O1 [Example 72, 8-(6-amino-5-((2-(trifluoromethyl)pyridin-3-yl)thio)pyrazin-2-yl)-1-oxa-3,8-diazaspiro[4.5]dec-2-en-2-amine] | 193 | – |
| NC1=NC2(CCN(c3cnc(Sc4ccnc(Cl)c4Cl)c(N)n3)CC2)CO1 [Example 73] | 20 | – |
| CN(C)c1nccc(Sc2ncc(N3CCC4(CCC[C@H]4N)CC3)nc2N)c1Cl [Example 75, (R)-8-(6-amino-5-((3-chloro-2-(dimethylamino)pyridin-4-yl)thio)pyrazin-2-yl)-8-azaspiro[4.5]decan-1-amine] | 10 | – |
| Nc1nc(N2CCC3(CCC[C@H]3N)CC2)cnc1Sc1ccncc1C(F)(F)F [Example 80] | 42 | – |
| Nc1cc(Sc2ncc(N3CCC4(CCC[C@H]4N)CC3)nc2N)c(Cl)c(Cl)n1 [Example 87] | 9.3 | – |
| C[C@@H]1OCC2(CCN(c3cnc(Sc4cc(N)nc(Cl)c4Cl)c(N)n3)CC2)[C@@H]1N [Example 88] | 4 | – |
| Nc1cc(Sc2ncc(N3CCC4(CC3)COC[C@H]4N)nc2N)c(Cl)c(Cl)n1 [Example 89] | 11.8 | – |
| Nc1cc(Sc2ncc(N3CCC4(CC3)C[C@H](O)C[C@H]4N)nc2N)c(Cl)c(Cl)n1 [Example 90] | 4 | – |

Second part, the compound after the results:

| IC50 [1] [nM] | IC50 (unit given as M, TFA salt before chiral separation) [nM] | SMILES |
| --- | --- | --- |
| 3 | – | Nc1nc(N2CCC3(CC2)C[C@H](O)C[C@H]3N)cnc1Sc1ccnc(Cl)c1Cl [Example 57] |
| 10 | – | CO[C@H]1C[C@@H](N)C2(CCN(c3cnc(Sc4ccnc(N)c4Cl)c(N)n3)CC2)C1 [Example 59] |
| 4 | – | CO[C@H]1C[C@@H](N)C2(CCN(c3cnc(Sc4ccnc(Cl)c4Cl)c(N)n3)CC2)C1 [Example 60] |
| 7 | – | C[C@@H]1C[C@@H](N)C2(CCN(c3cnc(Sc4cccnc4C(F)(F)F)c(N)n3)CC2)C1 [Example 61] |
| 7 | – | Nc1nc(N2CCC3(CC2)COC[C@H]3N)cnc1Sc1ccnc(Cl)c1Cl [Example 63] |
| 56 | – | NC1=NC2(CCN(c3cnc(Sc4cccnc4C(F)(F)F)c(N)n3)CC2)CO1 [Example 74] |
| 78 | – | Nc1nc(N2CCC3(CCC[C@H]3N)CC2)cnc1Sc1ccnnc1Cl [Example 76] |
| 15 | – | COc1nccc(Sc2ncc(N3CCC4(CCC[C@H]4N)CC3)nc2N)c1Cl [Example 78] |
| 20 | – | Nc1nc(N2CCC3(CCC[C@H]3N)CC2)cnc1Sc1cc[nH]c(=O)c1Cl [Example 81, (R)-4-((3-amino-5-(1-amino-8-azaspiro[4.5]decan-8-yl)pyrazin-2-yl)thio)-3-chloropyridin-2(1H)-one] |
| – | 1 | CC1CCC2(CCN(c3cnc(Sc4cccnc4C(F)(F)F)c(N)n3)CC2)[C@@H]1N (stereo partly drawn) [Example 86a/b, (1R)-8-(6-amino-5-((2-(trifluoromethyl)pyridin-3-yl)thio)pyrazin-2-yl)-2-methyl-8-azaspiro[4.5]decan-1-amine] |
| 8 | – | Nc1nc(N2CCC3(CC2)C[C@@H](F)C[C@H]3N)cnc1Sc1ccnc(N)c1Cl [Example 91] |
| 10 | – | Nc1nc(N2CCC3(CC2)C[C@H](F)C[C@H]3N)cnc1Sc1ccnc(N)c1Cl [Example 92] |
